The values below come from patent US4882359A, “Azacycloalkane derivatives, absorption promoters containing the derivatives as the effective ingredient and external preparations containing the absorption promoters” (priority 1986, dated 1989).

Series [1] can be described thus: Percutaneous absorption of pindolol in rats, serum concentration by HPLC. Format: in vivo, Wistar-strain male rats. Conditions: relative to Control (Vehicle) = 1.0 of the same series in Table 5. As for the experimental part: There were provided groups each consisting of four Wistar-strain male rats each weighing 200 to 250 g and having their dorsal skin hair shorn with an electric shaver.
Each of the test solutions (pindolol-containing preparations) was applied to the shorn dorsal skin of test rats of one of the groups in an amount of 150 μl/2.5×2.5 cm^2 and then sealed up. Three hours after the application of the test solution, the blood of the test rats was collected and measured for serum concentration of pindolol by HPLC.
For comparison, the above procedure was followed except that there was used a control solution which was the same as said test solution except for non-use of any compounds of this invention, and also followed using a comparative test solution which was the same as the test solution except for the substitution of a comparative compound for the compound of this invention.

Series [2] in a line: Skin penetration of pindolol from test solution, diffusion cell method. The class given is in vitro ADME, female hairless mice. To be noted: for Activity (pindolol permeation): test solution, relative to Control (Vehicle) = 1.0.
Series [3] in a line: Skin penetration of 5-FU from test solution, diffusion cell method. Format: in vitro ADME, female hairless mice.
The test system of series [4] is glucose level in blood. The series can be described thus: Percutaneous absorption of glibenclamide: glucose level in blood of glucose-loaded rats. Format: in vivo, Wistar-strain male rats. Conditions: for Glucose level: glibenclamide 0.6 wt.% solution on dorsal skin, two hours after s.c. 20% glucose; for Inhibition rate: glucose level, relative to control group A and normal group. The protocol:
There were prepared control and test solutions having the following respective formulations (Table 8): […]
In the tests, there were used groups each consisting of four Wistar-strain male rats which weighed about 200 to 250 g and abstained from food for 24 hours.
Each of the control solutions A and B and the test solution indicated in the above Table 8 was applied to the dorsal skins, shorn by an electric clipper or shaver, of the rats of one group in an amount of 175 μl/2.5×2.5 cm^2 and then sealed up. Three hours after sealing up, 1.5 ml of 20% glucose was subcutaneously injected into said rats. Two hours after the glucose injection, the blood of the rats was collected and measured for glucose level in blood.
For comparison, the above procedure was followed except that azone was substituted for the compound of Example 12 in the test solution.
For further comparison, the blood of rats of one group which had been subjected only to 24 hours' abstinence from food (this group being hereinafter referred to as "normal group"), was measured for glucose level in blood. The rat groups to which the control solution A, the control solution B and the test solution were applied, are hereinafter referred to as "control group A", "control group B" and "test group", respectively.

Series [5] deals with glucose level in blood. The series can be described thus: Rectal absorption of insulin from suppository: glucose level in blood of rabbits. The class given is in vivo, male rabbits. Conditions: insulin suppository 0.3 g/kg rectal, 3% promoter where used. The protocol:
There were prepared the following suppositories for use in normal, control and test groups, respectively, each group consisting of five male rabbits weighing 2.5 to 3.5 kg each.
The three suppositories were into the rectums of the rabbit groups in an amount of 0.3 g suppository/kg, respectively. Thereafter, blood was collected from the rabbits through their ear vein three times with the lapse of time to measure the three collected blood samples for glucose level in blood by a glucose oxidase method. […] The results are indicated in terms of a change in glucose level in blood with respect to the glucose level in blood prior to the administration of the suppositories.

Series [6] deals with dorsal skin of Japanese-native rabbits. Kind of series: Primary skin irritation test (Draize's method). Format: in vivo. Further details: key to Average irritation score, 24 hours / Average irritation score, 48 hours / Average irritation score, 72 hours: Draize points: 0-2 mild, 2-6 moderate, 6-8 severe irritation. Conditions: for Average irritation score, 24 hours: 3% solution in polyethylene glycol 300, 24 hours after removal of plaster; for Average irritation score, 48 hours: 3% solution in polyethylene glycol 300, 48 hours after removal of plaster; for Average irritation score, 72 hours: 3% solution in polyethylene glycol 300, 72 hours after removal of plaster; for Overall evaluation (skin irritation): graded from irritation scores at 24, 48 and 72 hours. The protocol:
As one of tests on the compounds of this invention for their topical toxicity, a primary skin irritation test was made on skins using rabbits as the subjects. More particularly, an adhesive plaster for use in batch tests, to which 100 μl of a 3% test solution of each of the compounds of Examples 12, 37, 57 and 73 of this invention in 100 ml of polyethylene glycol 300 had dropwise been applied, was applied to the hair-shorn dorsal skin of three Japanese-native rabbits weighing 2.5 to 3.0 kg each and then sealed up on the dorsal skin for 24 hours. The rabbits were evaluated three times for their dorsal skin irritative reaction 24, 48 and 72 hours after removal of the plaster by using a method in accordance with the Draize's method.
The results are as shown in Table 18 in which the overall evaluation is represented by the following equation. [formula] and is graded into mild irritation (0-2 points), moderate irritation (2-6 points) and severe irritation (6-8 points).

The conditions of series [7]: for Activity (phenol red permeation): relative to Control (Vehicle) = 1.0.
Experimental: There were investigated the effects of the compound of this invention on the percutneous penetration of phenol red which is difficult to be penetrated using the dorsal skin of female hairless mice (each 9 weeks old) by a diffusion cell method which comprised adding 0.5 ml of a sodium chloride injection containing 2 mM of phenol red to the donor side and measuring the amount of phenol red permeated into the receptor layer by high-pace optimal densitometric meter (559 nm).
The nature of another series: in vivo. Conditions: rat.

Broadly, the LD50 is the dose expected to kill half of the subjects tested.

Take `CCN1CCCC1=O` [1-ethyl-2-pyrolidone, 1-ethyl-2-pyrrolidone]: in series [1], the “Activity (serum concentration of pindolol)” value was 2.8. In addition, in series [2], the “Cumulative amount of pindolol permeated, 24 hrs later” value stood at 1.3 ± 0.1 µM; the “Cumulative amount of pindolol permeated, 48 hrs later” value is 2.7 ± 0.2 µM; the “Activity (pindolol permeation)” value amounted to 0.7. Moreover, the “Cumulative amount of 5-FU permeated, 24 hrs later” value in series [3] (3.0 wt.% test compound, 5-FU 1.8 wt.% in ethanol/water, 24 hrs) was found to be 96 ± 15 µM. Also, the “Cumulative amount of 5-FU permeated, 48 hrs later” value in series [3] (3.0 wt.% test compound, 5-FU 1.8 wt.% in ethanol/water, 48 hrs) came out at 178 ± 9 µM. The “Activity (5-FU permeation)” value in series [3] (relative to Control (Vehicle) = 1.0) was determined as 0.9.
With `CCCCCCCCCCCCN1CCCCCC1=O` [Azone, 1-n-dodecylazacycloheptane-2-one, reference compound], in the series with glucose level in blood [4], the Glucose level was 133 ± 13 mg/dL and the Inhibition rate worked out at 25.0%. The “Changes of glucose level to the initial, 0.5 hr” value in the series on glucose level in blood [5] (0.5 hr) was -4 mg/dL. The “Changes of glucose level to the initial, 1 hr” value in the series with glucose level in blood [5] (1 hr) is recorded as “+2 mg/dl”. The “Changes of glucose level to the initial, 3 hrs” value in the series on glucose level in blood [5] (3 hrs) is given as “+1 mg/dl”. Besides, in series [6], the “Average irritation score, 24 hours” value is on record as 3.8 ± 1.3; the “Average irritation score, 48 hours” value worked out at 3.8 ± 1.7; the “Average irritation score, 72 hours” value is 5.5 ± 1.9; the “Overall evaluation (skin irritation)” value is “Moderate (moderate irritation (2-6 points))”. The “irritating actions on the skins (in words)” value in series [6] (rabbit, in vivo) is on record as “moderate grade irritating actions”. In addition, the “Cumulative amount of phenol red permeated, 24 hrs later” value in series [7] (3.0 wt.% test compound, phenol red, 24 hrs) came to 8.4 ± 7.6 µM. The “Cumulative amount of phenol red permeated, 48 hrs later” value in series [7] (3.0 wt.% test compound, phenol red, 48 hrs) turned out to be 14.5 ± 0.7 µM. For the same compound, in series [7], the “Activity (phenol red permeation)” value was 24.2. This compound also yielded an LD50 at 168 h in “in vivo” (po) of more than 5000 mg/kg. In addition, the LD50 at 168 h in the series “in vivo” (sc) was more than 5000 mg/kg.
Consider `CCCCCCCSCCCCN1CCCCCC1=O` [Example 37], for which the “Activity (serum concentration of pindolol)” value in series [1] is recorded as 16.2. Further, in series [6], the “Average irritation score, 24 hours” value was determined as 0.6 ± 2; the “Average irritation score, 48 hours” value was determined as 0.5 ± 0.5; the “Average irritation score, 72 hours” value is 0.5 ± 0.5; the “Overall evaluation (skin irritation)” value is recorded as “Mild (mild irritation (0-2 points))”. Further, the “Activity (phenol red permeation)” value in series [7] turned out to be 54.2. Also, the LD50 at 168 h in “in vivo” (po) is more than 5000 mg/kg. The same compound gave an LD50 at 168 h in the series “in vivo” (sc) of more than 5000 mg/kg.
As for `CCCCCCCCCCOCCN1CCCC1=O` [Example 57], the “Activity (serum concentration of pindolol)” value in series [1] was 33.0. For the same compound, in series [6], the “Average irritation score, 24 hours” value is 0.0 ± 0.0; the “Average irritation score, 48 hours” value was found to be 0.3 ± 0.3; the “Average irritation score, 72 hours” value turned out to be 0.3 ± 0.3; the “Overall evaluation (skin irritation)” value is listed as “Mild (mild irritation (0-2 points))”. Further, the “Activity (phenol red permeation)” value in series [7] is 65.5. This compound displayed an LD50 at 168 h in the series “in vivo” (po) of more than 5000 mg/kg. Besides, the LD50 at 168 h in “in vivo” (sc) is more than 5000 mg/kg.
As to `CCCCCCCOCCCCN1CCCCCC1=O` [Example 73], the “Activity (serum concentration of pindolol)” value in series [1] is recorded as 34.1. Besides, in series [6], the “Average irritation score, 24 hours” value is 0.3 ± 0.3; the “Average irritation score, 48 hours” value is given as 0.3 ± 0.3; the “Average irritation score, 72 hours” value turned out to be 0.5 ± 0.5; the “Overall evaluation (skin irritation)” value is reported as “Mild (mild irritation (0-2 points))”. Further, the “Activity (phenol red permeation)” value in series [7] is reported as 56.3. In the series “in vivo” (po), the LD50 at 168 h was more than 5000 mg/kg. The LD50 at 168 h in the series “in vivo” (sc) is more than 5000 mg/kg.
For the compound `COc1ccc(Cl)cc1C(=O)NCCc1ccc(S(=O)(=O)NC(=O)NC2CCCCC2)cc1` [Glibenclamide], in the series on glucose level in blood [4], the Glucose level was found to be 157 ± 7 mg/dL and the Inhibition rate is reported as -3.6%. The “effects on hypoglycemic activity” value in the series on glucose level in blood [4] (glibenclamide used alone, compared with control group A) was “not exhibit any effects on hypoglycemic activity”.
Turning to “Pyrrolidone carboxylic acid [Pyrolidone carbonic acid, reference compound]”, in series [1], the “Activity (serum concentration of pindolol)” value was 2.1. Moreover, in series [2], the “Activity (pindolol permeation)” value was 0.5.
